Data: ChEMBL document CHEMBL1909046, “DrugMatrix in vitro pharmacology data”

Tests used:
[1] = molecular target: 5-hydroxytryptamine receptor 4 (Cavia porcellus, UniProt O70528); format: cell membranes, Dunkin-Hartley, Striatum, Membrane; note: in other assays of this panel Not Active means under 50% inhibition at 10 µM
[2] = DRUGMATRIX: Sigma2 radioligand binding (ligand: [3H] Ifenprodil); format: cell membranes, Rattus norvegicus, Wistar, Brain, Membrane; conditions: Not Active = under 50% inhibition at 10 µM
[3] = molecular target: T1, Vasoactive intestinal polypeptide receptor 1 (Homo sapiens, UniProt P32241); format: cell membranes, Membrane; conditions: ht-29; note: in other assays of this panel Not Active means under 50% inhibition at 10 µM
T1 sequence (P32241 whole entry): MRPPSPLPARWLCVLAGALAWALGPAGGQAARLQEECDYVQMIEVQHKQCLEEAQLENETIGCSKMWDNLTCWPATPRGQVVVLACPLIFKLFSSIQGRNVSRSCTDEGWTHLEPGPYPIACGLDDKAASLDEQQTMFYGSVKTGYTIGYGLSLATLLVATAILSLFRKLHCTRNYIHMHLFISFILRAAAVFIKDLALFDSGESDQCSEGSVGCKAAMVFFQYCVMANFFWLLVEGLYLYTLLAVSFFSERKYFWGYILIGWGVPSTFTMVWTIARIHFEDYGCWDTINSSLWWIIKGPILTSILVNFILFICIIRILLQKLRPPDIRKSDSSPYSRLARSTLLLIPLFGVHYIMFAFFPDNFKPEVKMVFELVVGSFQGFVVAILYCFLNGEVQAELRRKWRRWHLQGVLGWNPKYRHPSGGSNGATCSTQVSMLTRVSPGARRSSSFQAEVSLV

Mu-type opioid receptor = Mu-type opioid receptor (Homo sapiens, UniProt P35372); assay: DRUGMATRIX: Opiate mu (OP3, MOP) radioligand binding (ligand: [3H] Diprenorphine); format: cell membranes, CHO-K1, Membrane; conditions: cho-k1; Not Active = under 50% inhibition at 10 µM
[4] = molecular target: Epidermal growth factor receptor (Homo sapiens, UniProt P00533); assay: DRUGMATRIX: Protein Tyrosine Kinase, EGF Receptor enzyme inhibition (substrate: Poly(Glu:Tyr)); format: cell-based, Insect cells; conditions: insect cells; Not Active = under 50% inhibition at 10 µM
Cytochrome P450 3A4 = Cytochrome P450 3A4 (Homo sapiens, UniProt P08684); conditions: bti-tn-5b1-4; note: in other assays of this panel Not Active means under 50% inhibition at 10 µM
Sequence of Cytochrome P450 3A4 (P08684 whole entry): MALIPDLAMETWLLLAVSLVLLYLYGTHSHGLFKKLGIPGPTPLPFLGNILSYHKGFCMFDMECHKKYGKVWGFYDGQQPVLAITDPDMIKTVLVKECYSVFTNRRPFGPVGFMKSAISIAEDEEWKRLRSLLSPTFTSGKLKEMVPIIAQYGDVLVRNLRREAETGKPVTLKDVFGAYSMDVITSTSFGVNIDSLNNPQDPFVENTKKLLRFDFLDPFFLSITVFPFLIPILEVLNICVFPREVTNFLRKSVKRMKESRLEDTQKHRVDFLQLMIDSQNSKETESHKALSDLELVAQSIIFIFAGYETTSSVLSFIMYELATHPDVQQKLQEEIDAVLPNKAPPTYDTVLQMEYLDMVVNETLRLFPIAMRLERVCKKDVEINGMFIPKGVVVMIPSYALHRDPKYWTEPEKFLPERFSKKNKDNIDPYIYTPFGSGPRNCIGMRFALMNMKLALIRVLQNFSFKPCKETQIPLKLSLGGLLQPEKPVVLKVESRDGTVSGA

Sequence of Mu-type opioid receptor (P35372 whole entry): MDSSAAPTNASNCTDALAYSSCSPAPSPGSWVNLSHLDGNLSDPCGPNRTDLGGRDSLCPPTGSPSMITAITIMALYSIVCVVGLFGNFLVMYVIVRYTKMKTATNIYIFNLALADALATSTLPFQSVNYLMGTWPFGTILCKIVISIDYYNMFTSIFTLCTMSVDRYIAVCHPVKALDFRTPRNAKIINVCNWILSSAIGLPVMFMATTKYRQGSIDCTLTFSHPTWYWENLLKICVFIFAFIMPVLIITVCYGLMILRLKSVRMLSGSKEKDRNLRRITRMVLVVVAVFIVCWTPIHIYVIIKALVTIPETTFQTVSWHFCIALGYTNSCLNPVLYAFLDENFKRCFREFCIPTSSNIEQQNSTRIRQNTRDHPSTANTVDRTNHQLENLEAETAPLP
Sequence of 5-hydroxytryptamine receptor 4 (O70528 whole entry): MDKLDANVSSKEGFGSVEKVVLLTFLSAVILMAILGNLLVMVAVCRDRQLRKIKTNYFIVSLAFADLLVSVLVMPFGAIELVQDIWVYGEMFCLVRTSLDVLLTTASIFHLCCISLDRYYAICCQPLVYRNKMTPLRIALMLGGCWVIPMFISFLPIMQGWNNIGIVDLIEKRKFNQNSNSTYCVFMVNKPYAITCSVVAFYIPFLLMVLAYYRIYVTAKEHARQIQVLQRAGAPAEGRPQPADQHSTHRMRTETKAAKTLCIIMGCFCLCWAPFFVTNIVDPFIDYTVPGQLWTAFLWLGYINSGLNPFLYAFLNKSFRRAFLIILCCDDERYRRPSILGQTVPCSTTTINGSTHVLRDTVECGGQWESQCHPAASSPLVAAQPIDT
Sequence of Epidermal growth factor receptor (P00533 whole entry): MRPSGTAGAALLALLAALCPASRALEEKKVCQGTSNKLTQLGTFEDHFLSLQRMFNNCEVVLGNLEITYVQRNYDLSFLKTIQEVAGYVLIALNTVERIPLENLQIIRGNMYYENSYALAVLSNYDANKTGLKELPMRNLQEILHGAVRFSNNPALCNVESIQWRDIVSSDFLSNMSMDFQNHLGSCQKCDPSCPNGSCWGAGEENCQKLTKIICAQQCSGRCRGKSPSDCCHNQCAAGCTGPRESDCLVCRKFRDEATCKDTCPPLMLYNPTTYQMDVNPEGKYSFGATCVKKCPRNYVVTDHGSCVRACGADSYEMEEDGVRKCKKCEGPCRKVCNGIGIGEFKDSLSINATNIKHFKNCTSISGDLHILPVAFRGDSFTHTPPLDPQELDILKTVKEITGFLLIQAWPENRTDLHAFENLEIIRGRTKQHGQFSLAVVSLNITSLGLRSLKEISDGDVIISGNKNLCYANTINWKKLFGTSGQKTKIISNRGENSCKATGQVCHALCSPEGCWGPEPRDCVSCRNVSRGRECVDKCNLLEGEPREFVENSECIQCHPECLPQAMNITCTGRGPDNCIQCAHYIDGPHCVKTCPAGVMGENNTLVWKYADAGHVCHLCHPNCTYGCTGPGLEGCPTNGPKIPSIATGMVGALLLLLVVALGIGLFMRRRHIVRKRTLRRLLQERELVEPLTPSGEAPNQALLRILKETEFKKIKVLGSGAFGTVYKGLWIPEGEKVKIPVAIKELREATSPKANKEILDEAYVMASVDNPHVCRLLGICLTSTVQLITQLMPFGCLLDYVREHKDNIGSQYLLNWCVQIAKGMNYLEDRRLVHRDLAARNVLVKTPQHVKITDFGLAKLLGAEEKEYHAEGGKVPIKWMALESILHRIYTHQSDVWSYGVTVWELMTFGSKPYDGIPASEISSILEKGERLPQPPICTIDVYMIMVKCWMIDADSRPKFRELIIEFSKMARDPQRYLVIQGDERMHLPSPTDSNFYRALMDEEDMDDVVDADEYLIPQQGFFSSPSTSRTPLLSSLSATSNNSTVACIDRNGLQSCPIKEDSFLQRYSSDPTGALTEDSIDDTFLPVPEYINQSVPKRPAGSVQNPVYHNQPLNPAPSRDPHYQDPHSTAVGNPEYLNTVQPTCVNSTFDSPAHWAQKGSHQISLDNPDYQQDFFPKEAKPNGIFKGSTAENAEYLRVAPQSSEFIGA

CN(C)C(=O)Oc1cccc([N+](C)(C)C)c1.[Br-] [NEOSTIGMINE BROMIDE]
Not Active: IC50 [1] | IC50 [2] | Ki [2] | IC50 [3] | IC50 (Mu-type opioid receptor) | IC50 [4] | IC50 (Cytochrome P450 3A4) | Ki (Cytochrome P450 3A4)

NC(=O)c1cccnc1 [NIACINAMIDE]
Not Active: IC50 [1] | IC50 [2] | Ki [2] | IC50 [3] | IC50 (Mu-type opioid receptor) | IC50 [4] | IC50 (Cytochrome P450 3A4) | Ki (Cytochrome P450 3A4)

CS(=O)(=O)Nc1ccc([N+](=O)[O-])cc1Oc1ccccc1 [NIMESULIDE]
Not Active: IC50 [1] | IC50 [2] | Ki [2] | IC50 [3] | IC50 (Mu-type opioid receptor) | IC50 [4] | IC50 (Cytochrome P450 3A4) | Ki (Cytochrome P450 3A4)

CN1C(=O)CN=C(c2ccccc2)c2cc([N+](=O)[O-])ccc21 [NIMETAZEPAM]
Not Active: IC50 [1] | IC50 [2] | Ki [2] | IC50 [3] | IC50 (Mu-type opioid receptor) | IC50 [4] | IC50 (Cytochrome P450 3A4) | Ki (Cytochrome P450 3A4)

COc1ccc2c(c1OC)C(=O)O[C@@H]2[C@H]1c2c(cc3c(c2OC)OCO3)CCN1C [NOSCAPINE]
Not Active: IC50 [1] | IC50 [2] | Ki [2] | IC50 [3] | IC50 (Mu-type opioid receptor) | IC50 [4] | IC50 (Cytochrome P450 3A4) | Ki (Cytochrome P450 3A4)

NC(=O)N1c2ccccc2CC(=O)c2ccccc21 [OXCARBAZEPINE]
Not Active: IC50 [1] | IC50 [2] | Ki [2] | IC50 [3] | IC50 (Mu-type opioid receptor) | IC50 [4] | IC50 (Cytochrome P450 3A4) | Ki (Cytochrome P450 3A4)

COc1ccnc(C[S+]([O-])c2nc3ccc(OC(F)F)cc3[nH]2)c1OC (stereo not given) [PANTOPRAZOLE]
Not Active: IC50 [1] | IC50 [2] | Ki [2] | IC50 [3] | IC50 (Mu-type opioid receptor) | IC50 [4] | IC50 (Cytochrome P450 3A4) | Ki (Cytochrome P450 3A4)

CCc1ccc(CCOc2ccc(CC3SC(=O)NC3=O)cc2)nc1 (stereo not given) [PIOGLITAZONE]
Not Active: IC50 [1] | IC50 [2] | Ki [2] | IC50 [3] | IC50 (Mu-type opioid receptor) | IC50 [4] | IC50 (Cytochrome P450 3A4) | Ki (Cytochrome P450 3A4)

CCCNC(C)C(=O)Nc1ccccc1C (stereo not given) [PRILOCAINE]
Not Active: IC50 [1] | IC50 [2] | Ki [2] | IC50 [3] | IC50 (Mu-type opioid receptor) | IC50 [4] | IC50 (Cytochrome P450 3A4) | Ki (Cytochrome P450 3A4)

CCN(CC)CCNC(=O)c1ccc(N)cc1 [PROCAINAMIDE]
Not Active: IC50 [1] | IC50 [2] | Ki [2] | IC50 [3] | IC50 (Mu-type opioid receptor) | IC50 [4] | IC50 (Cytochrome P450 3A4) | Ki (Cytochrome P450 3A4)
